Results published in US20260097045A1, “ANTIMICROBIAL COMBINATIONS” (Helperby Therapeutics Limited, priority 2022, published 2026).
Residues, ends and D or L forms follow the SMILES beside them.

How the values were obtained:
Assay type in all cases: cell-based
P. aeruginosa = assay: chequerboard assay (percentage of positive control, MIC, FIC) against P. aeruginosa; details: for MIC: Pseudomonas aeruginosa, read-out: MIC Monotherapy (X)
From the text: (§1) FICI or fractional inhibitory concentration index is the sum of the FICs of each antimicrobial when used in combination. The FIC or fractional inhibitory concentration of an antimicrobial in a combination, is the MIC of the antimicrobial in the combination divided by the MIC of the same antimicrobial when used alone. Minimum inhibitory concentrations are defined in the art as the lowest concentration of an antimicrobial that will inhibit the visible growth of a microorganism after overnight incubation.
(§2) In the method for a 3-mer combination, one antibiotic was “fixed” as part of a backbone whilst the two other antibiotics were varied over a doubling concentration scale beginning at the MIC (×1) for the effective dose in monotherapy against the organism being tested. The ΣFIC was then calculated as shown below. In the method for a 4-mer combination, two antibiotics were “fixed” as part of a backbone whilst the two other antibiotics were varied over a doubling concentration scale beginning at the MIC (×1) for the effective dose in monotherapy against the organism being tested.
(§3) The ΣFIC was divided by “0.5/n” where n=number of antimicrobials in the combination to provide FIC. The inventors opted for this expression because it more closely aligns with the 2-mer synergy levels. The same FIC scale as used for 2-mers was applied: synergy is observed when FIC is <0.5. An “Additive” effect is observed when FIC is 0.5 to <1. Indifference is observed when FIC is 1 to <2. Antagonism is observed when FIC is 2 to 4.
(§4) The antimicrobial agents were sourced from commercially available sources. They were prepared by being weighed and dissolved in water, PBS, DMSO or acidified water to a final concentration from 1-10 mg/mL. Antimicrobial solutions were diluted to 10× highest concentration used in the experiment and subsequently diluted 2× over a series not exceeding 11 serial dilutions. These left the operator with a maximum of 12 different, descending concentrations of the chosen antimicrobials.
(§5) The bacteria were obtained from Ninewells Hospital and Medical School in Dundee, Scotland. They were obtained as patient strains and characterised by Vitek 2 screening. To prepare for the Examples below, the bacteria were grown overnight in Mueller Hinton Cation adjusted broth or until confluent in media with or without supplements. The bacteria were measured for OD600 and readings of <0.25 were returned to the incubator.
(§6) All data herein was produced using the same chequerboard assay.
(§7) 20 μL of antibiotic A (backbone), at a single dilution, was pipetted into all wells of a 96-well plate to be used.
(§8) 20 μL of the lowest concentration of antibiotic B (first variable) was pipetted into column 1 of the 96-well plate. The second concentration (2-fold more concentrate) was pipetted into column 2. This process was repeated until all concentrations of antibiotic B to be used were complete.
(§9) 20 μL of the lowest concentration of antibiotic C (second variable) were pipetted into row A of the 96-well plate. The second concentration (2-fold more concentrate) was pipetted into row B. This process was repeated until all concentrations of antibiotic C to be used were complete.
(§10) 120 μL of sterile media (BHI/MHB2) was added.
(§11) 20 ul of prepared bacterial culture was added.
(§12) Plates were sealed with lids and left to incubate for 16 hours, overnight.
(§13) Plates were read at OD600 in a 96-well plate reader. These are the values reported in the chequerboards below.
(§14) As a tri-mer combination, two antibiotic concentrations were varied while one remained constant, the latter is the “backbone”. For the 4-mer combination, two antibiotic concentrations were varied while two remained constant, the latter is the “backbone”. This method is explained above along with the calculation of the FICI and the indicative value for synergy, indifference and antagonism.
The method was identical to Comparative Example 1, except the isolate was P. aeruginosa.

K. pneumoniae CPE = assay: chequerboard assay (OD600, FIC) against K. pneumoniae CPE; details: agent alone
A. baumannii = assay: chequerboard assay (percentage of positive control, MIC, FIC) against A. baumannii; details: for concentration up to which the isolate was resistant to the agent / MIC: A. baumannii isolate, agent alone; for MIC: Acinetobacter baumannii, read-out: MIC Monotherapy (X)
From the text: as §1, §2, §3, §4, §5, §6, §7, §8, §9, §10, §11, §12, §13, §14
The method was identical to Comparative Example 1. The isolate was A. baumannii.

ESBL E. coli = assay: chequerboard assay (OD600, MIC, FIC) against ESBL E. coli; details: for MIC: Escherichia coli, agent alone, ESBL E. coli isolate, read-out: MIC Monotherapy (X)
From the text: as §1, §2, §3, §4, §5, §6, §7, §8, §9, §10, §11, §12, §13, §14

[1] = tested on: Methicillin-resistant Staphylococcus aureus (MRSA); assay: chequerboard assay (percentage of positive control, MIC, FIC) against MRSA; details: for MIC: Staphylococcus aureus, agent alone, MRSA isolate, read-out: MIC Monotherapy (X)
From the text: as §1, §2, §3, §4, §5, §6, §7, §8, §9, §10, §11, §12, §13, §14
The method was identical to Comparative Example 1. The isolate was Methicillin-resistant Staphylococcus aureus (MRSA).

[2] = agent alone, P. aeruginosa isolate
[3] = agent within AZT + ceftazidime + colistin (Example 17)
[4] = agent within AZT + fosfomycin + colistin (Example 15)
[5] = agent within AZT + meropenem + colistin + fosfomycin (Example 14)
[6] = agent within zidovudine + meropenem + colistin + ceftazidime (Example 13)
[7] = agent within zidovudine + meropenem + colistin + fosfomycin (Example 14)
[8] = agent within AZT + colistin + ceftazidime (Example 17)
[9] = agent within AZT + ceftazidime + meropenem (Example 16)
[10] = agent within ceftazidime + AZT + doxycycline (Example 3)
[11] = agent within ceftazidime + levofloxacin + fosfomycin (Example 18)
[12] = agent within ceftazidime + levofloxacin + meropenem (Example 19)
[13] = P. aeruginosa isolate, agent alone

Compound | MIC (P. aeruginosa; [2]) [µg/mL] | MIC combination therapy (Y) (P. aeruginosa; [3]) [µg/mL] | MIC combination therapy (Y) (P. aeruginosa; [4]) [µg/mL] | Ratio Y:X (P. aeruginosa; [4]) | MIC combination therapy (Y) (P. aeruginosa; [6]) [µg/mL] | MIC combination therapy (Y) (P. aeruginosa; [7]) [µg/mL] | MIC (A. baumannii) [µg/mL] | MIC combination therapy (Y) (A. baumannii; [8]) [µg/mL] | MIC combination therapy (Y) (A. baumannii; [4]) [µg/mL] | Ratio Y:X (A. baumannii; [4]) | MIC combination therapy (Y) (P. aeruginosa; [9]) [µg/mL] | MIC combination therapy (Y) (ESBL E. coli; [10]) [µg/mL] | MIC combination therapy (Y) [1, 11] [µg/mL] | MIC combination therapy (Y) [1, 12] [µg/mL] | MIC [1] [µg/mL] | also measured
CCC(C)CCCC(=O)N[C@@H](CCN)C(=O)N[C@H](C(=O)N[C@@H](CCN)C(=O)N[C@H]1CCNC(=O)[C@H]([C@@H](C)O)NC(=O)[C@H](CCN)NC(=O)[C@H](CCN)NC(=O)[C@H](CC(C)C)NC(=O)[C@@H](CC(C)C)NC(=O)[C@H](CCN)NC1=O)[C@@H](C)O (stereo partly drawn) (HELM PEPTIDE1{[CCC(C)CCCC(=O)[*:2]].[Dab].T.[Dab].[Dab].[Dab].[dL].L.[Dab].[Dab].T}$PEPTIDE1,PEPTIDE1,5:R3-11:R2$$$V2.0) | 512 | 4 | 0.5 | 0.000977 | 2 | 32 | 128 | 32 | 0.5 | 0.003906 | – | – | – | – | – | Ratio Y:X (P. aeruginosa; [3]): 0.007813; Ratio Y:X (P. aeruginosa; agent within AZT + meropenem + colistin + ceftazidime (Example 13)): 0.003906; Ratio Y:X (P. aeruginosa; [5]): 0.0625; concentration at which the isolate was resistant to the agent (K. pneumoniae CPE): ≥ 8 mg/L; concentration up to which the isolate was resistant to the agent (A. baumannii): 64 mg/L; Ratio Y:X (A. baumannii; [8]): 0.25
CC(C)(O/N=C(\C(=O)N[C@@H]1C(=O)N2C(C(=O)[O-])=C(C[n+]3ccccc3)CS[C@H]12)c1csc(N)n1)C(=O)O [Ceftazidime] | 512 | 1 | – | – | 1 | – | 512 | 32 | – | – | 0.5 | 4 | 16 | 1 | – | concentration at which the isolate was resistant to the agent (K. pneumoniae CPE): 4 mg/L
C[C@H]1c2cccc(O)c2C(=O)C2=C(O)[C@]3(O)C(=O)C(C(N)=O)=C(O)[C@@H](N(C)C)[C@@H]3[C@@H](O)[C@@H]21 [Doxycycline] | – | – | – | – | – | – | – | – | – | – | – | 0.5 | – | – | – | MIC (ESBL E. coli): 1 µg/mL
C[C@@H]1O[C@@H]1P(=O)(O)O [Fosfomycin] | 256 | – | 16 | 0.125 | – | 4 | 256 | – | 32 | 0.125 | – | – | 2 | – | 16 | concentration up to which the isolate was resistant to the agent (P. aeruginosa; [13]): 64 mg/L; MIC Monotherapy (X) (P. aeruginosa; [2]): 128 µg/mL; Ratio Y:X (P. aeruginosa; [5]): 0.01562; Ratio Y:X [1, 11]: 0.125; concentration up to which the isolate was resistant to the agent (A. baumannii): 128 mg/L
C[C@H]1COc2c(N3CCN(C)CC3)c(F)cc3c(=O)c(C(=O)O)cn1c23 [Levo, Levofloxacin] | – | – | – | – | – | – | – | – | – | – | – | – | 0.125 | 0.25 | 1 | Ratio Y:X [1, 11]: 0.125; Ratio Y:X [1, 12]: 0.25
C[C@@H](O)[C@H]1C(=O)N2C(C(=O)O)=C(S[C@@H]3CN[C@H](C(=O)N(C)C)C3)[C@H](C)[C@H]12 [Meropenem] | 32 | – | – | – | 2 | 4 | – | – | – | – | 4 | – | – | 4 | 32 | concentration up to which the isolate was resistant to the agent (P. aeruginosa; [13]): 64 mg/L
Cc1cn([C@H]2C[C@H](N=[N+]=[N-])[C@@H](CO)O2)c(=O)[nH]c1=O [Zidovudine, 1-[(2R, 4S, 5S)-4-Azido-5-(hydroxymethyl)oxolan-2-yl]-5-methylpyrimidine-2,4-dione] | 512 | 2 | 0.5 | 0.000977 | 1 | 1 | 512 | 4 | 0.5 | 0.000977 | 8 | 0.125 | – | – | – | Ratio Y:X (P. aeruginosa; [3]): 0.003906; Ratio Y:X (P. aeruginosa; [9]): 0.01562; Ratio Y:X (P. aeruginosa; [6]): 0.001953; Ratio Y:X (P. aeruginosa; [7]): 0.001953; MIC (ESBL E. coli): 1 µg/mL; Ratio Y:X (ESBL E. coli; [10]): 0.125; Ratio Y:X (A. baumannii; [8]): 0.007813
